# Measurements as given in patent publication US10117943B2, “Synthetic antibody mimetic compounds (SYAMS) targeting cancer, especially prostate cancer” (YALE UNIVERSITY, priority 2013, dated 2018).
# Key:
# Type in all cases: cell-based
# PSMA coated beads [1] = experiment: ROS production (superoxide burst, lucigenin) by primed U937 cells against PSMA coated beads
# Procedure: (§1) Three days before the experiments, a plate of U937 cells (approximately 60% confluent) was passed into a new Petri dish (10 mL colored RPMI growth media total volume). IFN-γ (20 μL, 100 μg/mL in DPBS) was added, and the cells were maintained in an incubator (37° C., 24 h). The cells were pelleted after 24 hours and resuspended in 10 mL of IFN-γ (20 uL, 100 ug/mL in DPBS) and maintained in an incubator (37° C., 24 h)
# For ROS production cells were resuspended in RPMI growth media (10 mL), and split equally into two Petri dishes. To each dish were added additional colored RPMI growth media (5 mL) and IFN-γ (20 μL, 100 μg/mL in DPBS), and maintained in an incubator (37° C., 24 h)
# Primed U937 were suspended in color-free ADCP media at a concentration of 3×10^5 U937 cells and mixed with 10^5 PSMA coated beads and various concentrations of molecules in a 96 well plate in a volume of 90 uL. To each well was added 10 μl of 2.5 mM lucigenin (Tokyo Chemicals) solution to bring the total volume to 100 μl. The plate was centrifuged at 200 rcf for 2 minutes (PLATE SPINNER). The chemiluminescence was then measured at two minute intervals by plate reader (Biotek Synergy 2) for 60 to 90 minutes.
# RM1.PGLS cells [2] = experiment: Superoxide burst (lucigenin) by primed U937 cells against RM1.PGLS cells; details: IFN-γ primed U937 effectors
# Source text: Since SyAM-P1 was able to induce effector-cell mediated responses against target protein coated beads, the inventors then evaluated if the molecule can elicit the effects against PSMA expressing cells. To that end, the inventors evaluated the SyAM-P1 induced immune responses by primed U937 effector cells against PSMA expressing RM1.PGLS cells. They tested the U937-mediated immune effects by evaluating both superoxide burst and phagocytosis of effector cells, analogous to the protein coated bead experiments. In this experiment, IFN-γ primed U937 cells were incubated with PSMA expressing RM1.PGLS cells, and treated with various concentrations of SyAM-P1. The resulting superoxide burst response was measured using the lucigenin assay (data not shown). Additionally, primed U937 cells (stained with DiD, an FL4 membrane dye) were incubated with target RM1.PGLS cells (stained with […], an FL1 membrane dye), in the presence of various concentrations of SyAM-P 1. The resulting phagocytosis—indicated by FL1 and FL4 double positive cells—was measured using two-color flow-cytometry. As a positive control, ARM-P8 combined with anti-DNP antibodies was utilized. […] The positive response seen with the Arm-P8 control, could potentially be attributed to the ability of antibodies to ligate both FcγRI and FcγRIIA on the immune effector cells, increasing immune signaling and phagocytic responses.
# RM1.PGLS cells [3] = experiment: Phagocytosis of PSMA expressing RM1.PGLS cells by IFN-γ primed U937 cells
# Procedure: Target cell passing: Three days before the experiments, a plate of target cells, RM1.PGLS cells were passed into a new flask.
# Effector cell priming: Three days before the experiments, a plate of U937 cells (approximately 60% confluent) was passed into a new Petri dish (10 mL colored ADCP media total volume). IFN-γ (20 μL, 100 μg/mL in DPBS) was added, and the cells were maintained in an incubator (37° C., 24 h). The cells were transferred into a Falcon tube, and DiD (19 uL, final concentration=1.9 μM) was added. The cells were maintained in an incubator (37° C., 30 min), pelleted, aspirated, resuspended in colored ADCP media (10 mL), and split equally into two Petri dishes. To each dish were added additional colored ADCP media (5 mL) and IFN-γ (20 μL, 100 μg/mL in DPBS), and the cells were maintained in an incubator (37° C., 24 h).
# Target cell preparation: To a plate of target cells (60-80% confluent RM1.PGLS cells 10 mL total media volume) was added DiO (20 μL, final concentration=2 μM). The cells were maintained in an incubator (37° C., 30 min), aspirated, and washed with colored ADCP media (3×10 mL). Colored ADCP media (10 mL) was added. The cells were maintained in an incubator (37° C., 2 h), detached and resuspended in color-free ADCP media at a concentration of 0.5 million cells per mL.
# Effector cell preparation: Both dishes of primed U937 cells were transferred into a Falcon tube, pelleted, aspirated, resuspended in color-free ADCP media (10 mL), counted, and diluted with color-free ADCP media to give a final concentration of 2 million cells per mL.
# Phagocytosis: All conditions were run in triplicate. For each experiment, into a sterile 2 mL Eppendorf tube were added color-free ADCP media (25 μL) containing either various concentrations of SyAM-Px or ARM-P8/Anti-DNP antibody, target cells (25 μL=12,500 cells), and effector cells (50 μL=100,000 cells), to give an effector-to-target ratio of 8:1. Tubes were gently agitated by hand. The cells were pelleted (2 min, 1100 rpm). The tubes were opened, maintained in an incubator (37° C., 1 h), resuspended by briefly agitating with a vortex, and analyzed by flow cytometry.
# PSMA coated beads [4] = experiment: Molecule induced phagocytosis of PSMA coated beads by IFN-γ primed U937 cells; details: compared with the previous generation SyAM-P
# Procedure: as §1
# For phagocytosis: cells were transferred into a Falcon tube, and DiD (19 uL, final concentration=1.9 μM) was added. The cells were maintained in an incubator (37° C., 30 min), pelleted, aspirated, resuspended in RPMI growth media (10 mL), and split equally into two Petri dishes. To each dish were added additional colored RPMI growth media (5 mL) and IFN-γ (20 μL, 100 μg/mL in DPBS), and maintained in an incubator (37° C., 24 h).
# […] streptavidin fluoresbrite YG microspheres from Polysciences were incubated with 4× concentration of avi-tagged PSMA for 30 minutes at room temperature in DPBS (concentration of avi-tagged PSMA is dependent on biotin loading capacity of microspheres). Beads were washed with DPBS 2× and resuspended in color-free ADCP media at 1.6 million beads/mL.
# Phagocytosis: 25 uL of bead solution was added to 25 uL of ADCP media either with or without molecules at various concentrations in an eppendorf tube. To this 50 uL of 4 million/mL primed U937 cells were added, gently mixed and then centrifuged at […] for 2 minutes. The caps were opened and placed in an incubator (37° C., 1 hr) at which point the eppendorfs were closed and placed on ice. Samples were vortexed and run on an Accuri C6 flow cytometer for a total of 50 k counts.
# Data analysis: For each experiment 50,000 events were counted. Forward and side scatter plots were optimally gated to remove debris particles and cellular aggregates. On a plot of FL-2 vs FL-4 the following populations were counted: […]
smiles,measurement,setting,value
CC(=O)N[C@H](C(=O)N[C@@H](CC(N)=O)C(=O)N[C@@H](CO)C(=O)N[C@H]1CSSC[C@@H](C(=O)NCC(=O)N[C@@H](CC(=O)O)C(=O)N[C@@H](CC(=O)O)C(=O)N[C@@H](CCCCNC(=O)CCCC(=O)NCCOCCOCCOCC(=O)NCCCC[C@H](NC(=O)COCCOCCOCCNC(=O)CCCC(=O)NCCCC[C@H](NC(=O)[C@H](CC(=O)O)NC(=O)[C@H](CC(=O)O)NC(=O)CNC(=O)[C@@H]2CSSC[C@H](NC(=O)[C@H](CO)NC(=O)[C@H](CC(N)=O)NC(=O)[C@@H](NC(C)=O)C(C)C)C(=O)N[C@@H](CC(C)C)C(=O)N[C@@H](CC(C)C)C(=O)N[C@@H](CC(C)C)C(=O)N3CCC[C@H]3C(=O)N[C@@H](CC(N)=O)C(=O)N[C@@H](CC(C)C)C(=O)N[C@@H](CC(C)C)C(=O)NCC(=O)N2)C(=O)N[C@@H](CCCCNC(=O)CCCC[C@@H]2SC[C@@H]3NC(=O)N[C@@H]32)C(N)=O)C(=O)NCc2cn(-c3cc(C(=O)NCCCCCC(=O)NCCCCCC(=O)NCCCCCC(=O)NCCCCCC(=O)NCCCCCC(=O)NCCCCCC(=O)NCc4cn(CCCC[C@H](NC(=O)N[C@@H](CCC(=O)O)C(=O)O)C(=O)O)nn4)cc(C(=O)NCCCCCC(=O)NCCCCCC(=O)NCCCCCC(=O)NCCCCCC(=O)NCCCCCC(=O)NCCCCCC(=O)NCc4cn(CCCC[C@H](NC(=O)N[C@@H](CCC(=O)O)C(=O)O)C(=O)O)nn4)c3)nn2)C(=O)N[C@@H](CCCCNC(=O)CCCC[C@@H]2SC[C@@H]3NC(=O)N[C@@H]32)C(N)=O)NC(=O)CNC(=O)[C@H](CC(C)C)NC(=O)[C@H](CC(C)C)NC(=O)[C@H](CC(N)=O)NC(=O)[C@@H]2CCCN2C(=O)[C@H](CC(C)C)NC(=O)[C@H](CC(C)C)NC(=O)[C@H](CC(C)C)NC1=O)C(C)C [SyAM-P3],superoxide production without target PSMA+ beads,"PSMA coated beads [1]; SyAM-P3 alone, various concentrations",little to no background superoxide detection
same,superoxide burst against PSMA coated beads (comparison in words),PSMA coated beads [1]; compared with SyAM-P2,much greater immune response
same,superoxide burst against RM1.PGLS cells (in words),RM1.PGLS cells [2],No response
same,phagocytosis of RM1.PGLS cells (in words),RM1.PGLS cells [3]; IFN-γ primed U937 effectors,"effectively induce U937-mediated phagocytosis, in a dose dependent manner"
same,concentration of peak phagocytosis response,RM1.PGLS cells [3]; RM1.PGLS cells,10 nM
same,phagocytosis of RM1.PGLS cells compared with ArmP8 plus anti-DNP antibody,"RM1.PGLS cells [3]; anti-DNP antibody 133 nM, background subtracted",phagocytosis at significantly less concentration than for ArmP8
same,phagocytosis of PSMA coated beads (comparison in words),PSMA coated beads [4],much greater immune response
